One test addresses human TACE (Homo sapiens (Human), UniProt P78536). The settings on record: read-out: TACE potency IC50.
In a further test the target is human MMP13 (Homo sapiens (Human), UniProt P45452). The note with it: read-out: hMMP-13 potency IC50.
The target in the next test is human ADAMTS-5 (Homo sapiens (Human), UniProt Q9UNA0). The note with it: read-out: hADAMTS-5 potency IC50.
A further test deals with rnADAMTS-5 (1-564-6H) (Rattus norvegicus, UniProt Q6TY19). The note with it: read-out: Rat ADAMTS-5 potency IC50.

Here are results for 23 compounds from patent US9926281B2 (priority 2014, dated 2018).

One may read the IC50 as the concentration needed to halve the response being measured.

Sequence of human ADAMTS-5 (Q9UNA0 262-930): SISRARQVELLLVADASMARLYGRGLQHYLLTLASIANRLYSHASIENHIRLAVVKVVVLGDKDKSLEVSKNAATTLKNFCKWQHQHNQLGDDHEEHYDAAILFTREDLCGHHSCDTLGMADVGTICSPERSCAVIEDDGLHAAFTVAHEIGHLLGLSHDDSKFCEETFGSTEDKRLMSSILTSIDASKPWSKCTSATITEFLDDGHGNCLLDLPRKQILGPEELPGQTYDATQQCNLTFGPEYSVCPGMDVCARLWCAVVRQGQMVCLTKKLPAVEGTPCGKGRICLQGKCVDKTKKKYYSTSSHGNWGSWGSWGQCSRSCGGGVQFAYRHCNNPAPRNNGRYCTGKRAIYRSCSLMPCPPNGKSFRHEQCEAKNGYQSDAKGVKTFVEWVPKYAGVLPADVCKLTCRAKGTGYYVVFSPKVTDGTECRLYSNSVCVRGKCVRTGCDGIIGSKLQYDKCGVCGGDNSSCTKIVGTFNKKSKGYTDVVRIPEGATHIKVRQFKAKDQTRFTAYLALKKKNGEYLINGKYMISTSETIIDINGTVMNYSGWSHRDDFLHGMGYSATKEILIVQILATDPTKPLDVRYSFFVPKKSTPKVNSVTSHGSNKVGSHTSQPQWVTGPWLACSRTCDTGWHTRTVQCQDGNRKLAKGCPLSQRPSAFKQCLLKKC
Sequence of human TACE (P78536 whole entry, looked up, change not shown): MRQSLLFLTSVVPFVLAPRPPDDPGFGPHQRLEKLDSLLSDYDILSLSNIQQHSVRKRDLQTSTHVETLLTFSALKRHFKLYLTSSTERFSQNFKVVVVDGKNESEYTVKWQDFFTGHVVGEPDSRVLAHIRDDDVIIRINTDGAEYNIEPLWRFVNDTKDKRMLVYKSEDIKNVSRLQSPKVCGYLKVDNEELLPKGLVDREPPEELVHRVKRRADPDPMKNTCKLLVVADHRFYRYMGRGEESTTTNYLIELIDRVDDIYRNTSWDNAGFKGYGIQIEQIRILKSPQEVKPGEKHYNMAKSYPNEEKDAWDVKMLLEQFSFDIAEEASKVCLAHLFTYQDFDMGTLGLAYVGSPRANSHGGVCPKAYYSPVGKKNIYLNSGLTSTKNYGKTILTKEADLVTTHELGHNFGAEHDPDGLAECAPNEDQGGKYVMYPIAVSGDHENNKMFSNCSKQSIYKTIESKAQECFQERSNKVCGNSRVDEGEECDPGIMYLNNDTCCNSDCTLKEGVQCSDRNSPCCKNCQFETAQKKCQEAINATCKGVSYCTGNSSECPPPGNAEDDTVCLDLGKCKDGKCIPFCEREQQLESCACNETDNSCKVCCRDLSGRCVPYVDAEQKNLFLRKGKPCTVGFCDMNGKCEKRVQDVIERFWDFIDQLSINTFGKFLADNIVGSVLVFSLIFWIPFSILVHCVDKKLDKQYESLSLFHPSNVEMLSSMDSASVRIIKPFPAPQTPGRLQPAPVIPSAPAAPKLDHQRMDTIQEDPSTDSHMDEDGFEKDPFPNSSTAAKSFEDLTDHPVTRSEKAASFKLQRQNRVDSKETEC
Description for human ADAMTS-5: Finally, the fluorescence is read on the Envision (Perkin Elmer) after an incubation of 90 min at 37° C.
Description for human MMP13: Human MMP13 is preactivated by incubated the enzyme in the same buffer complemented with 1 mM freshly prepared p-Aminophenylmercuric acetate (AMPA) for 1 hour at 37° C.

`CC(CC1(CC2CCN(C(=O)OC(C)(C)C)CC2)NC(=O)NC1=O)C(=O)N1CCN(c2cc(Cl)cc(Cl)c2)CC1` (centres unmarked) [compound 198, tert-butyl 4-[[4-[3-[4-(3,5-dichlorophenyl)piperazin-1-yl]-2-methyl-3-oxo-propyl]-2,5-dioxo-imidazolidin-4-yl]methyl]piperidine-1-carboxylate]: the IC50 at human TACE amounted to 817 nM; on human MMP13 it was 1940 nM; at human ADAMTS-5, 52 nM; at rnADAMTS-5 (1-564-6H) it was 38 nM.
Taken in the same sequence, the figures for `COC(=O)CC1(CCC(=O)N2CCN(c3cc(Cl)cc(Cl)c3)CC2)NC(=O)NC1=O` (centres unmarked) [Cpd 182, Methyl 2-[4-[3-[4-(3,5-dichlorophenyl)piperazin-1-yl]-3-oxo-propyl]-2,5-dioxo-imidazolidin-4-yl]acetate] were more than 4000 nM, more than 20000 nM, 104 nM and 87 nM.
For `C[C@H]1CN(C(=O)CC[C@@]2(C3CC3)NC(=O)NC2=O)CCN1c1ccc(Cl)c(Cl)c1` [compound 207, (5S)-5-cyclopropyl-5-[3-[(3S)-4-(3,4-dichlorophenyl)-3-methyl-piperazin-1-yl]-3-oxo-propyl]imidazolidine-2,4-dione], the IC50 at human TACE is more than 4000 nM; on human MMP13, 2880 nM; at human ADAMTS-5, 12 nM; at rnADAMTS-5 (1-564-6H), 6 nM.
As for `C[C@H]1CN(C(=O)CCC2(C3CC3)NC(=O)NC2=O)CCN1c1ccc(Cl)c(Cl)c1` (stereo partly drawn) [compound 167, 5-cyclopropyl-5-[3-[(3S)-4-(3,4-dichlorophenyl)-3-methyl-piperazin-1-yl]-3-oxo-propyl]imidazolidine-2,4-dione], the IC50 at human TACE was more than 4000 nM; on human MMP13 it was more than 4000 nM; at human ADAMTS-5, 19 nM; on rnADAMTS-5 (1-564-6H) it was 10 nM.
Turning to `CN(C)c1cccc(N2CCN(C(=O)CCC3(C4CC4)NC(=O)NC3=O)CC2)c1` (centres unmarked) [compound 209, 5-cyclopropyl-5-[3-[4-[3-(dimethylamino)phenyl]piperazin-1-yl]-3-oxo-propyl]imidazolidine-2,4-dione], the IC50 was more than 4000 nM at human TACE, more than 20000 nM at human MMP13, 836 nM at human ADAMTS-5 and 565 nM at rnADAMTS-5 (1-564-6H).
Consider `CC(CC1(C2CNC2)NC(=O)NC1=O)C(=O)N1CCN(c2cc(Cl)cc(Cl)c2)CC1` (centres unmarked) [compound 196], for which the IC50 at human TACE was more than 3930 nM; at human MMP13, more than 20000 nM; at human ADAMTS-5 it was 102 nM; at rnADAMTS-5 (1-564-6H), 104 nM.
In the case of `CC(CC1NC(=O)NC1=O)C(=O)N1CCN(c2cc(Cl)cc(Cl)c2)CC1` (centres unmarked) [compound 200, 5-[3-[4-(3,5-dichlorophenyl)piperazin-1-yl]-2-methyl-3-oxo-propyl]imidazolidine-2,4-dione], the half-inhibitory concentration (IC50) on human MMP13 is more than 20000 nM; on human ADAMTS-5, 109 nM; at rnADAMTS-5 (1-564-6H) it was 135 nM.
Consider `CC(CC1(C2CC2)NC(=O)NC1=O)C(=O)N1CCN(c2ccc(F)c(Cl)c2)[C@@H](C)C1` (stereo partly drawn) [compound 192, 5-[3-[(3S)-4-(3-chloro-4-fluoro-phenyl)-3-methyl-piperazin-1-yl]-2-methyl-3-oxo-propyl]-5-cyclopropyl-imidazolidine-2,4-dione], for which the 50% inhibitory concentration (IC50) at human TACE was more than 4000 nM; at human MMP13, 865 nM; at human ADAMTS-5, 11 nM; at rnADAMTS-5 (1-564-6H), 6 nM.
For `O=C1NC(=O)C(CCC(=O)N2CCN(c3cc(Cl)cc(Cl)c3)CC2)(CNCc2ccccc2)N1` (centres unmarked) [Cpd 181, 5-[(benzylamino)methyl]-5-[3-[4-(3,5-dichlorophenyl)piperazin-1-yl]-3-oxo-propyl]imidazolidine-2,4-dione], the IC50 on human TACE was 2860 nM; on human MMP13, more than 20000 nM; on human ADAMTS-5 it was 97 nM; at rnADAMTS-5 (1-564-6H), 127 nM.
For `CC(CC1(C2CC2)NC(=O)NC1=O)C(=O)N1CCN(c2cccc(F)c2)[C@@H](C)C1` (stereo partly drawn) [compound 190, 5-cyclopropyl-5-[3-[(3S)-4-(3-fluorophenyl)-3-methyl-piperazin-1-yl]-2-methyl-3-oxo-propyl]imidazolidine-2,4-dione], the IC50 on human TACE was more than 20000 nM; at human MMP13, 3060 nM; on human ADAMTS-5, 22 nM; at rnADAMTS-5 (1-564-6H), 15 nM.
As for `COCCNC(=O)CC1(CCC(=O)N2CCN(c3cc(Cl)cc(Cl)c3)CC2)NC(=O)NC1=O` (centres unmarked) [compound 187, 2-[4-[3-[4-(3,5-dichlorophenyl)piperazin-1-yl]-3-oxo-propyl]-2,5-dioxo-imidazolidin-4-yl]-N-(2-methoxyethyl)acetamide], the IC50 on human TACE is more than 20000 nM; on human MMP13, 2610 nM; at human ADAMTS-5 it was 456 nM; on rnADAMTS-5 (1-564-6H) it was 396 nM.
On the same counts, the results for `CC(CC1(C)NC(=O)NC1=O)C(=O)N1CCN(c2cc(F)cc(F)c2)[C@@H](C)C1` (stereo partly drawn) [compound 213, 5-[3-[(3S)-4-(3,5-difluorophenyl)-3-methyl-piperazin-1-yl]-2-methyl-3-oxo-propyl]-5-methyl-imidazolidine-2,4-dione] are more than 20000 nM, more than 4000 nM, 30 nM and 21 nM.
Taken in the same sequence, the figures for `CC(CC1(C2CC2)NC(=O)NC1=O)C(=O)N1CCN(c2cc(F)cc(Cl)c2)[C@@H](C)C1` (stereo partly drawn) [compound 194, 5-[3-[(3S)-4-(3-chloro-5-fluoro-phenyl)-3-methyl-piperazin-1-yl]-2-methyl-3-oxo-propyl]-5-cyclopropyl-imidazolidine-2,4-dione] were more than 4000 nM, 952 nM, 11 nM and 5 nM.
On the same counts, the results for `Cc1c(Cl)cc(Cl)cc1N1CCN(C(=O)CCC2(C3CC3)NC(=O)NC2=O)C[C@@H]1C` (stereo partly drawn) [compound 177, 5-cyclopropyl-5-[3-[(3S)-4-(3,5-dichloro-2-methyl-phenyl)-3-methyl-piperazin-1-yl]-3-oxo-propyl]imidazolidine-2,4-dione] are 1990 nM, more than 20000 nM, 78 nM and 40 nM.
`Cc1ccc(F)cc1N1CCN(C(=O)C(C)CC2(C)NC(=O)NC2=O)C[C@@H]1C` (stereo partly drawn) [compound 216, 5-[3-[(3S)-4-(5-fluoro-2-methyl-phenyl)-3-methyl-piperazin-1-yl]-2-methyl-3-oxo-propyl]-5-methyl-imidazolidine-2,4-dione]: the IC50 is more than 4000 nM on human TACE, more than 20000 nM at human MMP13, 305 nM on human ADAMTS-5 and 250 nM on rnADAMTS-5 (1-564-6H).
As to `Cc1ccc(F)cc1N1CCN(C(=O)C(C)CC2(C3CC3)NC(=O)NC2=O)CC1` (centres unmarked) [compound 174, 5-cyclopropyl-5-[3-[4-(5-fluoro-2-methyl-phenyl)piperazin-1-yl]-2-methyl-3-oxo-propyl]imidazolidine-2,4-dione], the IC50 at human TACE is 321 nM; at human MMP13, more than 20000 nM; at human ADAMTS-5, 21 nM; on rnADAMTS-5 (1-564-6H), 17 nM.
Turning to `C[C@H]1CN(C(=O)CCC2(C3CC3)NC(=O)NC2=O)CCN1c1ccc(F)c(Cl)c1` (stereo partly drawn) [compound 163, 5-[3-[(3S)-4-(3-chloro-4-fluoro-phenyl)-3-methyl-piperazin-1-yl]-3-oxo-propyl]-5-cyclopropyl-imidazolidine-2,4-dione], the IC50 was more than 20000 nM on human TACE, more than 20000 nM on human MMP13, 40 nM on human ADAMTS-5 and 45 nM on rnADAMTS-5 (1-564-6H).
In the case of `C[C@H]1CN(C(=O)CCC2(C3CC3)NC(=O)NC2=O)CCN1c1ccc(F)c(F)c1` (stereo partly drawn) [compound 161, 5-cyclopropyl-5-[3-[(3S)-4-(3,4-difluorophenyl)-3-methyl-piperazin-1-yl]-3-oxo-propyl]imidazolidine-2,4-dione], the IC50 at human TACE is more than 20000 nM; at human MMP13, more than 20000 nM; on human ADAMTS-5 it was 54 nM; at rnADAMTS-5 (1-564-6H), 37 nM.
Take `CC(CC1(C2CC2)NC(=O)NC1=O)C(=O)N1CCN(c2ccc(Cl)cc2)[C@@H](C)C1` (stereo partly drawn) [compound 193, 5-[3-[(3S)-4-(4-chlorophenyl)-3-methyl-piperazin-1-yl]-2-methyl-3-oxo-propyl]-5-cyclopropyl-imidazolidine-2,4-dione]: the IC50 at human TACE is more than 20000 nM; at human MMP13 it was 433 nM; at human ADAMTS-5 it was 23 nM; on rnADAMTS-5 (1-564-6H) it was 7 nM.
On the same counts, the results for `CC(CC1(C2CC2)NC(=O)NC1=O)C(=O)N1CCN(c2ccc(F)c(F)c2)[C@@H](C)C1` (stereo partly drawn) [compound 191, 5-cyclopropyl-5-[3-[(3S)-4-(3,4-difluorophenyl)-3-methyl-piperazin-1-yl]-2-methyl-3-oxo-propyl]imidazolidine-2,4-dione] are more than 20000 nM, 1880 nM, 20 nM and 11 nM.
Take `C[C@H]1CN(C(=O)CCC2(C)NC(=O)NC2=O)CCN1c1cc(F)cc(Cl)c1` (stereo partly drawn) [compound 170, 5-[3-[(3S)-4-(3-chloro-5-fluoro-phenyl)-3-methyl-piperazin-1-yl]-3-oxo-propyl]-5-methyl-imidazolidine-2,4-dione]: the IC50 on human MMP13 is more than 20000 nM; on human ADAMTS-5 it was 170 nM; on rnADAMTS-5 (1-564-6H), 244 nM.
On to `C[C@H]1CN(C(=O)CCC2(C3CC3)NC(=O)NC2=O)CCN1c1cc(F)cc(Cl)c1` (stereo partly drawn) [compound 169, 5-[3-[(3S)-4-(3-chloro-5-fluoro-phenyl)-3-methyl-piperazin-1-yl]-3-oxo-propyl]-5-cyclopropyl-imidazolidine-2,4-dione], for which the IC50 was more than 20000 nM on human TACE, more than 20000 nM on human MMP13, 30 nM on human ADAMTS-5 and 27 nM on rnADAMTS-5 (1-564-6H).
Take `CC(CC1NC(=O)NC1=O)C(=O)N1CCN(c2cc(Cl)cc(Cl)c2)CC1` (centres unmarked) [compound 219, 5-[3-[4-(3,5-dichlorophenyl)piperazin-1-yl]-2-methyl-3-oxo-propyl]imidazolidine-2,4-dione]: the IC50 on human MMP13 was more than 4000 nM; at human ADAMTS-5, 41 nM; at rnADAMTS-5 (1-564-6H), 29 nM.
